# Experimental data published in US20230365553A1, “COMPOUNDS AND COMPOSITIONS FOR TREATING CONDITIONS ASSOCIATED WITH STING ACTIVITY” (IFM Due, Inc., priority 2020, published 2023).
# Target: T1, STING (Homo sapiens, UniProt Q86WV6, G230A/H232R/R293Q/R71H)
# T1 construct: host or cells: THP1-Dual KO-IFNAR2 cells
# Assay: STING reporter assay: luciferase reporter activity in THP1-Dual KO-IFNAR2 cells stimulated with 2′3′cGAMP
# Assay type: cell-based
# Details: 15 μM 2′3′cGAMP, 24h, read-out: hSTING EC50
# How it was run: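 THP1-Dual KO-IFNAR2 cells (2×10E6 cells/mL) were exposed to compounds at 0.0017-100 μM, then stimulated with 2′3′cGAMP (15 μM final) transfected via Lipofectamine 2000. After 24h at 37° C., secreted luciferase in supernatant was read by QUANTI-Luc luminescence; EC50 derived from concentration-response.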
# T1 sequence (Q86WV6 whole entry R71H/G230A/H232R/R293Q): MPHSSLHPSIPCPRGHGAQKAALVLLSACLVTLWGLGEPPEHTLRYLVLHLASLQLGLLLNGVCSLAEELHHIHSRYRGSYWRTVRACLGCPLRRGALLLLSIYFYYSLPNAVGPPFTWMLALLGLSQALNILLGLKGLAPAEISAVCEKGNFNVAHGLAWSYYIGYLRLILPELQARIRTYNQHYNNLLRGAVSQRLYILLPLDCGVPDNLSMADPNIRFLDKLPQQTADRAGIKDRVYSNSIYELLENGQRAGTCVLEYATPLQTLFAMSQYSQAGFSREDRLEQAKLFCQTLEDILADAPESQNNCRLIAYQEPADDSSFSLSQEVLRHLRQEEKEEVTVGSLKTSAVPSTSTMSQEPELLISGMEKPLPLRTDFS
row,EC50 [nM],SMILES
1,200 to 1000,"O=C(Nc1c[nH]c2ccc(-c3cnn(-c4ccc(C(F)(F)F)cc4)c3)cc12)c1cocn1 [Compound 267, N-(5-(1-(4-(trifluoromethyl)phenyl)-1H-pyrazol-4-yl)-1H-indol-3-yl)oxazole-4-carboxamide]"
2,1000 to 5000,"Cn1ccnc1C(=O)Nc1c[nH]c2ccc(-c3cnn(-c4ccc(C(F)(F)F)cc4)c3)cc12 [Compound 269, 1-methyl-N-(5-(1-(4-(trifluoromethyl)phenyl)-1H-pyrazol-4-yl)-1H-indol-3-yl)-1H-imidazole-2-carboxamide]"
3,200 to 1000,"Cn1ccc(C(=O)Nc2c[nH]c3ccc(-c4cnn(-c5ccc(C(F)(F)F)cc5)c4)cc23)n1 [Compound 276, 1-methyl-N-(5-(1-(4-(trifluoromethyl)phenyl)-1H-pyrazol-4-yl)-1H-indol-3-yl)-1H-pyrazole-3-carboxamide]"
4,200 to 1000,"Cn1cc(C(=O)Nc2c[nH]c3ccc(-c4cnn(-c5ccc(C(F)(F)F)cc5)c4)cc23)cn1 [Compound 278, 1-methyl-N-(5-(1-(4-(trifluoromethyl)phenyl)-1H-pyrazol-4-yl)-1H-indol-3-yl)-1H-pyrazole-4-carboxamide]"
5,200 to 1000,"Cn1cc(C(=O)Nc2c[nH]c3ccc(-c4cnn(-c5ccc(C(F)(F)F)cc5)c4)cc23)nn1 [Compound 279, 1-methyl-N-(5-(1-(4-(trifluoromethyl)phenyl)-1H-pyrazol-4-yl)-1H-indol-3-yl)-1H-1,2,3-triazole-4-carboxamide]"
6,200 to 1000,"O=C(Nc1c[nH]c2ccc(-c3cnn(-c4ccc(C(F)(F)F)cc4)c3)cc12)c1ccon1 [Compound 280, N-(5-(1-(4-(trifluoromethyl)phenyl)-1H-pyrazol-4-yl)-1H-indol-3-yl)isoxazole-3-carboxamide]"
7,1000 to 5000,"Cn1cnc(C(=O)Nc2c[nH]c3ccc(-c4cnn(-c5ccc(C(F)(F)F)cc5)c4)cc23)c1 [Compound 281, 1-methyl-N-(5-(1-(4-(trifluoromethyl)phenyl)-1H-pyrazol-4-yl)-1H-indol-3-yl)-1H-imidazole-4-carboxamide]"

# The next lines start with the molecule.
row,SMILES,EC50 [nM]
1,"N#Cc1cc(C(=O)Nc2c[nH]c3ccc(-c4cnn(-c5ccc(C(F)(F)F)cc5)c4)cc23)n[nH]1 [Compound 264, 5-cyano-N-(5-(1-(4-(trifluoromethyl)phenyl)-1H-pyrazol-4-yl)-1H-indol-3-yl)-1H-pyrazole-3-carboxamide]",1000 to 5000
2,"O=C(Nc1c[nH]c2ccc(-c3cnn(-c4ccc(C(F)(F)F)cc4)c3)cc12)c1ccn[nH]1 [Compound 265, N-(5-(1-(4-(trifluoromethyl)phenyl)-1H-pyrazol-4-yl)-1H-indol-3-yl)-1H-pyrazole-5-carboxamide]",200 to 1000
3,"O=C(Nc1c[nH]c2ccc(-c3cnn(-c4ccc(C(F)(F)F)cc4)c3)cc12)c1cn[nH]c1 [Compound 266, N-(5-(1-(4-(trifluoromethyl)phenyl)-1H-pyrazol-4-yl)-1H-indol-3-yl)-1H-pyrazole-4-carboxamide]",200 to 1000
4,"O=C(Nc1c[nH]c2ccc(-c3cnn(-c4ccc(C(F)(F)F)cc4)c3)cc12)c1cncs1 [Compound 268, N-(5-(1-(4-(trifluoromethyl)phenyl)-1H-pyrazol-4-yl)-1H-indol-3-yl)thiazole-5-carboxamide]",200 to 1000
5,"Cc1nc(C(=O)Nc2c[nH]c3ccc(-c4cnn(-c5ccc(C(F)(F)F)cc5)c4)cc23)co1 [Compound 270, 2-methyl-N-(5-(1-(4-(trifluoromethyl)phenyl)-1H-pyrazol-4-yl)-1H-indol-3-yl)oxazole-4-carboxamide]",200 to 1000
6,"Cc1cc(C(=O)Nc2c[nH]c3ccc(-c4cnn(-c5ccc(C(F)(F)F)cc5)c4)cc23)on1 [Compound 271, 3-methyl-N-(5-(1-(4-(trifluoromethyl)phenyl)-1H-pyrazol-4-yl)-1H-indol-3-yl)isoxazole-5-carboxamide]",200 to 1000
7,"O=C(Nc1c[nH]c2ccc(-c3cnn(-c4ccc(C(F)(F)F)cc4)c3)cc12)c1ncco1 [Compound 272, N-(5-(1-(4-(trifluoromethyl)phenyl)-1H-pyrazol-4-yl)-1H-indol-3-yl)oxazole-2-carboxamide]",1000 to 5000
8,"O=C(Nc1c[nH]c2ccc(-c3cnn(-c4ccc(C(F)(F)F)cc4)c3)cc12)c1nccs1 [Compound 273, N-(5-(1-(4-(trifluoromethyl)phenyl)-1H-pyrazol-4-yl)-1H-indol-3-yl)thiazole-2-carboxamide]",1000 to 5000
9,"Cc1cc(C(=O)Nc2c[nH]c3ccc(-c4cnn(-c5ccc(C(F)(F)F)cc5)c4)cc23)no1 [Compound 274, 5-methyl-N-(5-(1-(4-(trifluoromethyl)phenyl)-1H-pyrazol-4-yl)-1H-indol-3-yl)isoxazole-3-carboxamide]",200 to 1000
10,"O=C(Nc1c[nH]c2ccc(-c3cnn(-c4ccc(C(F)(F)F)cc4)c3)cc12)c1cscn1 [Compound 275, N-(5-(1-(4-(trifluoromethyl)phenyl)-1H-pyrazol-4-yl)-1H-indol-3-yl)thiazole-4-carboxamide]",1000 to 5000
11,"O=C(Nc1c[nH]c2ccc(-c3cnn(-c4ccc(C(F)(F)F)cc4)c3)cc12)c1cnoc1 [Compound 277, N-(5-(1-(4-(trifluoromethyl)phenyl)-1H-pyrazol-4-yl)-1H-indol-3-yl)isoxazole-4-carboxamide]",5000 to 100000
12,"O=C(Nc1c[nH]c2ccc(-c3cnn(-c4ccc(C(F)(F)F)cc4)c3)cc12)c1ccc(=O)[nH]n1 [Compound 282, 6-oxo-N-(5-(1-(4-(trifluoromethyl)phenyl)-1H-pyrazol-4-yl)-1H-indol-3-yl)-1,6-dihydropyridazine-3-carboxamide]",1000 to 5000
13,"CC(C)n1cc(C(=O)Nc2c[nH]c3ccc(-c4cnn(-c5ccc(C(F)(F)F)cc5)c4)cc23)nn1 [Compound 283, 1-isopropyl-N-(5-(1-(4-(trifluoromethyl)phenyl)-1H-pyrazol-4-yl)-1H-indol-3-yl)-1H-1,2,3-triazole-4-carboxamide]",200 to 1000
14,"O=C(Nc1c[nH]c2ccc(-c3cnn(-c4ccc(C(F)(F)F)cc4)c3)cc12)[C@@H]1CC(F)(F)CN1 [compound 184, (S)-4,4-difluoro-N-(5-(1-(4-(trifluoromethyl)phenyl)-1H-pyrazol-4-yl)-1H-indol-3-yl)pyrrolidine-2-carboxamide]",5000 to 100000
